Assay: method code SF-AS, from DOI: 10.1016/0223-5234(96)88212-2
Conditions: pH 7.4

In the case of `Clc1ccccc1N1CCN(CCn2nnc3ccccc32)CC1`, the logD is reported as 3.35.
`Clc1ccccc1N1CCN(CCCOn2nnc3ccccc32)CC1` gave a logD of 3.6.

— the SangsterLogP compilation
